We go through one compound from ChEMBL document CHEMBL6071147, “A novel 7-phenoxy-benzimidazole derivative as a potent and orally available BRD4 inhibitor for the treatment of melanoma” (Bioorg Med Chem, 2024).

The term IC50 denotes the midpoint of a concentration-inhibition curve. The low end stands for inhibition by little substance, the high end for a need for much substance.

This test has as its target Bromodomain testis-specific protein (Homo sapiens, UniProt Q58F21). As to the kind of experiment: Displacement of [Lys(5,8,12,16)Ac]H4(1 to 21)-biotin from BRDT-BD1 (unknown origin) by TR-FRET assay.

Take `Cn1cc(-c2ccc3nc(C4CCOCC4)[nH]c3c2Oc2ccccc2)ccc1=O`: the IC50 was 22 nM.
